# Tests used:
# Japonica rice [1] = experiment: Test D paddy water application plant response rating 0 to 100; format: in vivo, Oryza sativa; conditions: 0 to 100 scale, approx. 21 days
# From the text: (§1) Plastic pots were partially filled with silt loam soil. The soil was then saturated with water. […] After planting, water levels were raised to 3 cm above the soil surface and maintained at this level throughout the test. Chemical treatments were formulated in a non-phytotoxic solvent and applied directly to the paddy water. Treated plants and controls were maintained in a greenhouse for approximately 21 days, after which all species were compared to controls and visually evaluated. […] A dash (-) response means no test result.
# waterchestnut = experiment: as above; format: in vivo, Eleocharis spp.; conditions: 0 to 100 scale, approx. 21 days
# From the text: as §1
# green foxtail = experiment: Test F preemergence/postemergence greenhouse plant response rating 0 to 100; format: in vivo, Setaria viridis; conditions: POSTEMERGENCE, 0 to 100 scale
# From the text: (§2) Compounds evaluated in this test were formulated in a non-phytoxic solvent and applied to the soil surface before plant seedlings emerged (preemergence application) and to plants that were in the one-to-four leaf stage (postemergence application). A sandy loam soil was used for the preemergence test while a mixture of sandy loam soil and greenhouse potting mix in a 60:40 ratio was used for the postemergence test. Test compounds were applied within approximately one day after planting seeds for the preemergence test. Plantings of these crops and weed species were adjusted to produce plants of appropriate size for the postemergence test. All plant species were grown using normal greenhouse practices. Crop and weed species include winter barley (Hordeum vulgare cv. ‘Igri’), blackgrass (Alopecurus myosuroides), chickweed (Stellaria media), downy brome (Bromus tectorum), field violet (Viola arvensis), galium (Galium aparine), green foxtail (Setaria viridis), kochia (Kochia scoparia), lambsquarters (Chenopodium album), speedwell (Veronica persica), rape (Brassica napus), ryegrass (Lolium multiflorum), sugar beet (Beta vulgaris cv. ‘USl’), sunflower (Helianthus annuus cv. ‘Russian Giant’), spring wheat (Triticum aestivum cv. ‘ERA’), winter wheat (Triticum aestivum cv. ‘Talent’), wild buckwheat (Polygonum convolvulus), wild mustard (Sinapis arvensis), wild oat (Avena fatua), and wild radish (Raphanus raphanistrum). Blackgrass, galium and wild oat were treated at two growth stages. […] Treated plants and untreated controls were maintained in a greenhouse for approximately 21 to 28 days, after which all treated plants were compared to untreated controls and visually evaluated. […] A dash response (-) means no test result.
# umbrella sedge = experiment: Test D paddy water application plant response rating 0 to 100; format: in vivo, Cyperus difformis; conditions: 0 to 100 scale, approx. 21 days
# From the text: as §1
# barnyardgrass [2] = experiment: as above; format: in vivo, Echinochloa crus-galli; conditions: 0 to 100 scale, approx. 21 days
# From the text: as §1
# lambsquarters = experiment: Test F preemergence/postemergence greenhouse plant response rating 0 to 100; format: in vivo, Chenopodium album; conditions: POSTEMERGENCE, 0 to 100 scale
# From the text: as §2
# Japonica rice [3] = experiment: Test E paddy water application plant response rating 0 to 100; format: in vivo, oryza sativa; conditions: Flood, 0 to 100 scale, approx. 21 days
# From the text: (§3) Plastic pots were partially filled with silt loam soil. […] At testing, the water level for all plantings was raised to 2 cm above the soil surface. Chemical treatments were formulated in a non-phytotoxic solvent and applied directly to the paddy water. Treated plants and controls were maintained in a greenhouse for approximately 21 days, after which all species were compared to controls and visually evaluated. […] A dash (-) response means no test result.
# arrowhead = experiment: Test D paddy water application plant response rating 0 to 100; format: in vivo, Sagittaria spp.; conditions: 0 to 100 scale, approx. 21 days
# From the text: as §1
# duck salad = experiment: as above; format: in vivo, Heteranthera limosa; conditions: 0 to 100 scale, approx. 21 days
# From the text: as §1
# wild mustard = experiment: Test F preemergence/postemergence greenhouse plant response rating 0 to 100; format: in vivo, Sinapis arvensis; conditions: POSTEMERGENCE, 0 to 100 scale
# From the text: as §2
# rape = experiment: as above; format: in vivo, Brassica napus; conditions: POSTEMERGENCE, 0 to 100 scale
# From the text: as §2
# wild oat = experiment: as above; format: in vivo, Avena fatua; conditions: POSTEMERGENCE, 0 to 100 scale; for Wild oat (1) plant response rating: stage (1) two to three leaves; for Wild oat (2) plant response rating: stage (2) approximately four leaves or initial tillering
# From the text: as §2
# kochia = experiment: as above; format: in vivo, Kochia scoparia; conditions: POSTEMERGENCE, 0 to 100 scale
# From the text: as §2
# barnyardgrass [4] = experiment: Test E paddy water application plant response rating 0 to 100; format: in vivo, Echinochloa crus-galli; conditions: Flood, 0 to 100 scale, approx. 21 days
# From the text: as §3
compound,measurement,setting,value
C#CC(C)Oc1cc(-c2nn3c(c2Cl)CCCC3)c(F)cc1Cl (centres unmarked) [Compound 36],Japonica rice plant response rating,Japonica rice [1]; Rate 4 g/ha,10
same,Japonica rice plant response rating,Japonica rice [1]; Rate 8 g/ha,10
same,Japonica rice plant response rating,Japonica rice [1]; Rate 16 g/ha,15
same,Japonica rice plant response rating,Japonica rice [1]; Rate 32 g/ha,20
same,Japonica rice plant response rating,Japonica rice [1]; Rate 64 g/ha,25
same,Waterchestnut plant response rating,waterchestnut; Rate 4 g/ha,10
same,Waterchestnut plant response rating,waterchestnut; Rate 8 g/ha,10
same,Waterchestnut plant response rating,waterchestnut; Rate 16 g/ha,20
same,Waterchestnut plant response rating,waterchestnut; Rate 32 g/ha,20
same,Waterchestnut plant response rating,waterchestnut; Rate 64 g/ha,20
same,Green foxtail plant response rating,green foxtail; Rate 4 g/ha,0
same,Green foxtail plant response rating,green foxtail; Rate 8 g/ha,40
same,Green foxtail plant response rating,green foxtail; Rate 16 g/ha,50
same,Green foxtail plant response rating,green foxtail; Rate 32 g/ha,50
same,Umbrella sedge plant response rating,umbrella sedge; Rate 4 g/ha,0
same,Umbrella sedge plant response rating,umbrella sedge; Rate 8 g/ha,0
same,Umbrella sedge plant response rating,umbrella sedge; Rate 16 g/ha,60
same,Umbrella sedge plant response rating,umbrella sedge; Rate 32 g/ha,70
same,Umbrella sedge plant response rating,umbrella sedge; Rate 64 g/ha,80
same,Barnyardgrass 2 plant response rating,barnyardgrass [2]; Rate 4 g/ha,30
same,Barnyardgrass 2 plant response rating,barnyardgrass [2]; Rate 8 g/ha,65
same,Barnyardgrass 2 plant response rating,barnyardgrass [2]; Rate 16 g/ha,80
same,Barnyardgrass 2 plant response rating,barnyardgrass [2]; Rate 32 g/ha,100
same,Barnyardgrass 2 plant response rating,barnyardgrass [2]; Rate 64 g/ha,100
same,Lambsquarters plant response rating,lambsquarters; Rate 4 g/ha,50
same,Lambsquarters plant response rating,lambsquarters; Rate 8 g/ha,50
same,Lambsquarters plant response rating,lambsquarters; Rate 16 g/ha,60
same,Lambsquarters plant response rating,lambsquarters; Rate 32 g/ha,60
same,Japonica 1 plant response rating,Japonica rice [3]; Rate 8 g/ha,15
same,Japonica 2 plant response rating,Japonica rice [3]; Rate 8 g/ha,10
same,Japonica 1 plant response rating,Japonica rice [3]; Rate 16 g/ha,20
same,Japonica 2 plant response rating,Japonica rice [3]; Rate 16 g/ha,0
same,Japonica 1 plant response rating,Japonica rice [3]; Rate 32 g/ha,20
same,Japonica 2 plant response rating,Japonica rice [3]; Rate 32 g/ha,15
same,Japonica 1 plant response rating,Japonica rice [3]; Rate 64 g/ha,25
same,Japonica 2 plant response rating,Japonica rice [3]; Rate 64 g/ha,15
same,Japonica 1 plant response rating,Japonica rice [3]; Rate 125 g/ha,25
same,Japonica 2 plant response rating,Japonica rice [3]; Rate 125 g/ha,20
same,Arrowhead plant response rating,arrowhead; Rate 4 g/ha,0
same,Arrowhead plant response rating,arrowhead; Rate 8 g/ha,0
same,Arrowhead plant response rating,arrowhead; Rate 16 g/ha,0
same,Arrowhead plant response rating,arrowhead; Rate 32 g/ha,0
same,Arrowhead plant response rating,arrowhead; Rate 64 g/ha,0
same,Duck salad plant response rating,duck salad; Rate 4 g/ha,0
same,Duck salad plant response rating,duck salad; Rate 8 g/ha,0
same,Duck salad plant response rating,duck salad; Rate 16 g/ha,20
same,Duck salad plant response rating,duck salad; Rate 32 g/ha,30
same,Duck salad plant response rating,duck salad; Rate 64 g/ha,60
same,Wild mustard plant response rating,wild mustard; Rate 4 g/ha,100
same,Wild mustard plant response rating,wild mustard; Rate 8 g/ha,100
same,Wild mustard plant response rating,wild mustard; Rate 16 g/ha,100
same,Wild mustard plant response rating,wild mustard; Rate 32 g/ha,100
same,Rape plant response rating,rape; Rate 8 g/ha,40
same,Rape plant response rating,rape; Rate 16 g/ha,100
same,Rape plant response rating,rape; Rate 32 g/ha,100
same,Wild oat (1) plant response rating,wild oat; Rate 4 g/ha,10
same,Wild oat (2) plant response rating,wild oat; Rate 4 g/ha,10
same,Wild oat (1) plant response rating,wild oat; Rate 8 g/ha,20
same,Wild oat (2) plant response rating,wild oat; Rate 8 g/ha,10
same,Wild oat (1) plant response rating,wild oat; Rate 16 g/ha,20
same,Wild oat (2) plant response rating,wild oat; Rate 16 g/ha,20
same,Wild oat (1) plant response rating,wild oat; Rate 32 g/ha,20
same,Wild oat (2) plant response rating,wild oat; Rate 32 g/ha,20
same,Kochia plant response rating,kochia; Rate 4 g/ha,20
same,Kochia plant response rating,kochia; Rate 8 g/ha,60
same,Kochia plant response rating,kochia; Rate 16 g/ha,60
same,Kochia plant response rating,kochia; Rate 32 g/ha,100
same,Barnyardgrass 2 plant response rating,barnyardgrass [4]; Rate 8 g/ha,30
same,Barnyardgrass 3 plant response rating,barnyardgrass [4]; Rate 8 g/ha,30
same,Barnyardgrass 2 plant response rating,barnyardgrass [4]; Rate 16 g/ha,40
same,Barnyardgrass 3 plant response rating,barnyardgrass [4]; Rate 16 g/ha,35
same,Barnyardgrass 2 plant response rating,barnyardgrass [4]; Rate 32 g/ha,55
same,Barnyardgrass 3 plant response rating,barnyardgrass [4]; Rate 32 g/ha,40
same,Barnyardgrass 2 plant response rating,barnyardgrass [4]; Rate 64 g/ha,65
same,Barnyardgrass 3 plant response rating,barnyardgrass [4]; Rate 64 g/ha,50
same,Barnyardgrass 2 plant response rating,barnyardgrass [4]; Rate 125 g/ha,100
same,Barnyardgrass 3 plant response rating,barnyardgrass [4]; Rate 125 g/ha,75

# From patent US6358885B1, “Substituted phenylheterocyclic herbicides” (Mississippi State University, priority 1992, dated 2002)
